Data: patent publication US8202902B2, “Bivalent SMAC mimetics and the uses thereof” (The Regents of the University of Michigan, priority 2006, dated 2012)

Experiments:
[1] = test system: MDA-MB-231 (2LMP) human breast cancer cells; assay: Cell growth inhibition by cisplatin or mitoxantrone with SH-164; type: cell-based; conditions: 100 nM
Experimental: Cells were seeded in 96-well flat bottom cell culture plates at a density of 3000 cells/well with a tested compound and incubated at 37° C. in an atmosphere of 95% air and 5% CO2 for 4 days. The rate of cell growth inhibition after treatment with different concentrations of the compound was determined using a WST-8 kit (2-(2-methoxy-4-nitrophenyl)-3-(4-nitrophenyl)-5-(2, 4 disulfophenyl)-2H-tetrazolium monosodium salt; Dojindo Molecular Technologies, Inc., Gaithersburg, Md.). WST-8 was added at a final concentration of 10% to each well, and then the plates were incubated at 37° C. for 2-3 hrs. The absorbance of the samples was measured at 450 nm using a ULTRA Tecan Reader (Molecular Device).

[2] = biological target: T1, XIAP protein containing both BIR2 and BIR3 domains (Homo sapiens, UniProt P98170); assay: Fluorescence-polarization based binding assay, XIAP BIR2-BIR3
T1 construct: XIAP protein containing both BIR2 and BIR3 domains; made in house
T1 sequence (P98170 120-356 limits assumed): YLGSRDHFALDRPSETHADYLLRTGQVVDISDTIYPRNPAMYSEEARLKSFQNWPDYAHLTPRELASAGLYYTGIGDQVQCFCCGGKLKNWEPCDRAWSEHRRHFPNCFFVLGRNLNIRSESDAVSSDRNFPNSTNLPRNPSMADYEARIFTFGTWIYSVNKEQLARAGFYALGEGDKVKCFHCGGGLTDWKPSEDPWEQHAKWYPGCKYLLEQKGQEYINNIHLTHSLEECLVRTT

[3] = test system: MDA-MB-231 breast cancer cell line; assay: Apoptosis assay (Annexin V/P.I.), MDA-MB-231; type: cell-based, human; conditions: 1 nM for 12 h
Experimental: (§1) Analysis of apoptosis was performed using an apoptosis detection kit (BioVision Research Products, Mountain View, Calif.) according to the manufacturer's protocol. Briefly, cells were treated with Smac mimetics for 12 hours, harvested and washed with ice-cold PBS. Cells were stained with Annexin V-FITC and Propidium iodide (P.I.) for 15 minutes at room temperature in the dark and immediately analyzed by FACS calibur flow cytometer (Becton Dickinson, Erembodegem, Belgium). Cells that were stained Annexin V (+) and P.I. (−) were considered early-stage apoptotic cells. Cells that were stained annexin V (+) and P.I. (+) were considered late-stage apoptotic cells and cells that were stained annexin V (−) and P.I. (+) were considered necrotic cells (FIG. 6).
(§2) Treatment with SM-164 at 1 nM for 12 h induced 32%, 33%, and 37% of the MDA-MB-231, SK-OV-3 and MALME-3M cells to undergo apoptosis, respectively (FIGS. 12-14).

[4] = test system: SK-OV-3 ovarian cancer cell line; assay: Apoptosis assay (Annexin V/P.I.), SK-OV-3; type: cell-based; conditions: 1 nM for 12 h
Experimental: as §1, §2

[5] = test system: MDA-MB-231 and SK-OV-3 cancer cell lines; assay: Role of caspase-8, -3 and -9 (siRNA, caspase inhibitors) in activity of Smac mimetics; type: cell-based; conditions: siRNA
Description: To examine the role of caspase-8, -3 and -9 in apoptosis induction by Smac mimetics, siRNA was employed against these caspases in MDA-MB-231 and SK-OV-3 cancer cell lines.

[6] = test system: Sensitive cancer cell lines; assay: Secreted TNFα in cell culture medium (ELISA), sensitive lines; type: cell-based
Experimental: (§3) To explore whether the resistance of cancer cells to Smac mimetics is due to the lack of secreted TNFα, the levels of secreted TNFα were examined. Secreted TNFα concentrations were determined in 200 μl of cell culture medium using the Quantikine HS Human TNFα ELISA kit (R&D Systems). The assay was performed according to the manufacturer's instructions.

[7] = test system: resistant cancer cell lines (MDA-MB-453 breast, DU-145 prostate, MDA-MB-435 melanoma); assay: Secreted TNFα in cell culture medium (ELISA), resistant lines; type: cell-based
Experimental: as §3

[8] = test system: HCT116 and MDA-MB-453 cell lines; assay: Activity with exogenous TNFα in resistant cancer cell lines; type: cell-based
[9] = test system: HCT116 XIAP^+/+ and XIAP^−/− isogenic cell lines; assay: HCT116 XIAP+/+ and XIAP-/- isogenic cell lines, Smac mimetics with TNFα; type: cell-based
Description: To complement the siRNA experiments and to more precisely define the role of XIAP in TNFα-dependent apoptosis induction by Smac mimetics, HCT116 XIAP^+/+ and XIAP^−/− isogenic cell lines were used in further studies (Cummins et al., Cancer Res. 64:3006 (2004)). Since both these cell lines were resistant to SM-122 and SM-164 as a single agent (FIG. 41), the role of XIAP using Smac mimetics in combination with TNFα was investigated.
The combination of SM-164 at these concentrations with TNFα was effective in induction of caspase-3 activation, PARP cleavage and in inhibition of cell growth in the XIAP^+/+ cell line (FIG. 42). Although knockout of XIAP sensitized the HCT116 cells to SM-164 in combination with TNFα, the effect was much less than that observed with the combination of SM-122 with TNFα (FIG. 42).

[10] = test system: MDA-MB-231 xenograft tumor tissues; assay: cIAP-1 degradation and apoptosis in MDA-MB-231 xenograft tumor and normal tissues; type: in vivo, mice
Experimental: To further investigate its therapeutic potential and in vivo mechanism, SM-164 was evaluated in the MDA-MB-231 xenograft model in mice. […] A single dose of SM-164 at 5 mg/kg decreased the level of cIAP-1 protein within 1 h and the effect lasted for at least 24 h. […] Apoptosis was examined by TUNEL staining using the In situ Cell Death Detection Kit (Roche Applied Science). To determine apoptosis in xenograft tumor and normal mouse tissues, severe combined immunodeficient (SCID) mice bearing established tumor were treated with Smac mimetics. Tissues were harvested and TUNEL staining was performed on formaldehyde-fixed, paraffin-embedded tissues. Paraffin-embedded tissue sections, mounted on slides, were deparaffinized and rehydrated by washing in a descending series of alcohol solutions (100%, 95%, 70% and 50%) and PBS. Antigen retrieval was performed by the microwave oven method using a commercially available antigen retrieval buffer (Covance Research Products, Inc.). Tissue sections were blocked with 3% BSA and 20% normal bovine serum in PBS for 30 min at room temperature (RT) to block unspecific binding sites. Tissue sections were incubated in 100 μl of TUNEL mixture [TUNEL mixture=10 μl of Enzyme solution (Vial 1)+90 μl of Label solution (Vial 2)] for 60 min at RT. Tissue section incubated in 90 μl of Label solution (Vial 2), instead of TUNEL mixture was used as negative control. Tissue section preincubated in DNase I recombination in 3000 U/ml of PBS, 1 mg/ml BSA for 10 min RT, followed by incubation with TUNEL mixture was used as positive control. Tissues slides were rinsed with PBS 5 min ×3, and stained with Propidium iodide and mounted and observed under a fluorescent microscope. […] The strong apoptosis induction by SM-164 was still evident at the 24 h time point. […] In contrast to the strong apoptosis induction and damage in xenograft tumor tissues, SM-164 has no effect on all the normal mouse tissues examined, including highly proliferative tissues such as the small intestine, stomach, liver and spleen (FIGS. 47-49).
Using the MDA-MB-231 xenograft model, SM-122 was also examined for its ability to induce cIAP-1 degradation and apoptosis in tumor tissues in vivo.

cellular XIAP = cellular XIAP (Homo sapiens, UniProt P98170); conditions: cited from earlier work
Sequence of cellular XIAP (P98170 whole entry): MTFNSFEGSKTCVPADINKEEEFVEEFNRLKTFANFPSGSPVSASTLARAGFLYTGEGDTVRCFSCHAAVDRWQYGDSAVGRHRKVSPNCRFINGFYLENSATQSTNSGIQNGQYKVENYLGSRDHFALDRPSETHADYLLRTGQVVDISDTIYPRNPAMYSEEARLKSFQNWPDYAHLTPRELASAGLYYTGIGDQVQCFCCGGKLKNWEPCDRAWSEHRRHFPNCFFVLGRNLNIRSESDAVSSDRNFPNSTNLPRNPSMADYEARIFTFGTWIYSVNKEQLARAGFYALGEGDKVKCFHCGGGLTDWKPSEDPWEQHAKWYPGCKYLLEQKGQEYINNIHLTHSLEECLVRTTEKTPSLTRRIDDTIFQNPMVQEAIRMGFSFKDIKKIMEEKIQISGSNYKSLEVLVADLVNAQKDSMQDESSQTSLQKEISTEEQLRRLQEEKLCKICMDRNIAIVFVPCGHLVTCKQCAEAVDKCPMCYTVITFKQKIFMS

SMILES: CN[C@@H](C)C(=O)N[C@H]1CCCC[C@H]2CC[C@@H](C(=O)N[C@@H](c3ccccc3)c3cn(CCCCc4ccc(CCCCn5cc([C@@H](NC(=O)[C@@H]6CC[C@@H]7CCCC[C@H](NC(=O)[C@H](C)NC)C(=O)N76)c6ccccc6)nn5)cc4)nn3)N2C1=O [SH-164]
- sensitization to growth inhibition by cisplatin and mitoxantrone [1]: sensitized the cells to growth inhibition by both agents
- more potent than monovalent SM-122 for binding to XIAP [2]: 300 times
- cells undergoing apoptosis [3]: 32%
- cells undergoing apoptosis [4]: 33%
- effect of knockdown of caspase-3 and -8 on activity [5]: markedly attenuated
- effect of knockdown of caspase-9 on activity [5]: minimal effect
- secretion of TNFα [6]: further enhanced
- induction of TNFα [7]: failed to induce detectable levels of TNFα
- effect of exogenous TNFα on activity [8]: significantly enhanced
- caspase-3 activation, PARP cleavage and cell growth inhibition ([9]; 10-100 nM with TNFα, XIAP+/+ cell line): effective
- cIAP-1 degradation ([9]; 10-100 nM, both cell lines): effectively induced cIAP-1 degradation
- sensitivity as a single agent ([9]; both cell lines): resistant
- activation of caspase-8, -9, and -3 and cleavage of PARP ([10]; 3 h time point, persisted for 24 h): Robust activation
- TUNEL positive tumor cells ([10]; 6 h time point): more than 50%
- H&E staining of tumor tissues ([10]; mouse, in vivo): profound damage to tumor tissues
- duration of cIAP-1 decrease ([10]; single dose 5 mg/kg): at least 24 h
- time to decrease of cIAP-1 protein level in tumor ([10]; single dose 5 mg/kg): ≤ 1 h
- effect on normal mouse tissues ([10]; small intestine, stomach, liver, spleen etc.): no effect
- more potent than SM-122 in competing off a biotinylated Smac mimetic to cellular XIAP (cellular XIAP): > 100 times
